Laboratory results published in patent US9688722B2, “Substrates and inhibitors of prolyl oligopeptidase and methods of use” (The Board of Regents of the University of Oklahoma, priority 2012, dated 2017).
“Also recorded” adds a separate entry of the source. Read-outs that look alike come from different tables or passages of the source. Non-standard residues stand in square brackets, D forms with d. Residues, ends and D or L forms follow the SMILES beside them. *: point of attachment. AFC = O=c1cc(C(F)(F)F)c2ccc(N*)cc2o1; Tic = O=C(O)[C@@H]1Cc2ccccc2CN1; AMC = Cc1cc(=O)oc2cc(N*)ccc12; Cbz = O=C(OCc1ccccc1)*; AEEA = NCCOCCOCC(=O)O

Columns and labels:
APCE/FAP [1] = target: T1, APCE/FAP (Homo sapiens, UniProt Q12884); assay: APCE/FAP inhibition constants (Ki) with Tic-Pro-AFC substrate; type: biochemical; conditions: for Ki: substrate Tic-Pro-AFC
T1 construct: absence of an about 26-residue amino terminal peptide constituting the transmembrane and intracytosolic domains; from tissue
T1 sequence (Q12884 24-760 limits assumed): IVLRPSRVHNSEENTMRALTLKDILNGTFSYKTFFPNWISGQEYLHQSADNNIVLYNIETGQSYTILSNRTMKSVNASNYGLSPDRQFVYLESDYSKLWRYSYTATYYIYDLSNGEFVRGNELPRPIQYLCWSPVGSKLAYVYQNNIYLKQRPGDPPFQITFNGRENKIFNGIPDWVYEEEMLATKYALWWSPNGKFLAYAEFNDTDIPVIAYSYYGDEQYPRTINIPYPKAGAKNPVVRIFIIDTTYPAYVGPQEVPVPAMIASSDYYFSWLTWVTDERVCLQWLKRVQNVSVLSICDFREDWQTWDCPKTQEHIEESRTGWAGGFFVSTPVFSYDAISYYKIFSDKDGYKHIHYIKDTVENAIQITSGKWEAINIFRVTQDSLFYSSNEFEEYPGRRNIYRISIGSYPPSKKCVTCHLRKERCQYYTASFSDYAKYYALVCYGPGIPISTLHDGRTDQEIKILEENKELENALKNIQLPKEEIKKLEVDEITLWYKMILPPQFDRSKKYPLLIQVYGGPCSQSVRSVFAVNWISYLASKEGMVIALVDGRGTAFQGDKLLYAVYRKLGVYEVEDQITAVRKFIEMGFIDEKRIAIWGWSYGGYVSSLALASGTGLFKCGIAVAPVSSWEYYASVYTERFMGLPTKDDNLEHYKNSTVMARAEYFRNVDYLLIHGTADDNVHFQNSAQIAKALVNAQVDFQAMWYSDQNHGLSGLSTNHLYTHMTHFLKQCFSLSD
Procedure: (§1) For accurate assessment of kinetic parameters, saturating concentrations of substrate were used. For standard curves, dilutions of AFC (7-amino-4-trifluoromethylcoumarin) were prepared in the same assay buffer and corresponding fluorescence was measured.

DPPIV [2] = target: T2, DPPIV (Homo sapiens, UniProt P27487); assay: DPPIV inhibition constants (Ki) with Tic-Pro-AFC substrate; type: biochemical; conditions: for Ki: substrate Tic-Pro-AFC; for Selectivity Ki (DPPIV) / Ki (APCE-FAP): ratio of Ki values
T2 sequence (P27487 whole entry, species assumed): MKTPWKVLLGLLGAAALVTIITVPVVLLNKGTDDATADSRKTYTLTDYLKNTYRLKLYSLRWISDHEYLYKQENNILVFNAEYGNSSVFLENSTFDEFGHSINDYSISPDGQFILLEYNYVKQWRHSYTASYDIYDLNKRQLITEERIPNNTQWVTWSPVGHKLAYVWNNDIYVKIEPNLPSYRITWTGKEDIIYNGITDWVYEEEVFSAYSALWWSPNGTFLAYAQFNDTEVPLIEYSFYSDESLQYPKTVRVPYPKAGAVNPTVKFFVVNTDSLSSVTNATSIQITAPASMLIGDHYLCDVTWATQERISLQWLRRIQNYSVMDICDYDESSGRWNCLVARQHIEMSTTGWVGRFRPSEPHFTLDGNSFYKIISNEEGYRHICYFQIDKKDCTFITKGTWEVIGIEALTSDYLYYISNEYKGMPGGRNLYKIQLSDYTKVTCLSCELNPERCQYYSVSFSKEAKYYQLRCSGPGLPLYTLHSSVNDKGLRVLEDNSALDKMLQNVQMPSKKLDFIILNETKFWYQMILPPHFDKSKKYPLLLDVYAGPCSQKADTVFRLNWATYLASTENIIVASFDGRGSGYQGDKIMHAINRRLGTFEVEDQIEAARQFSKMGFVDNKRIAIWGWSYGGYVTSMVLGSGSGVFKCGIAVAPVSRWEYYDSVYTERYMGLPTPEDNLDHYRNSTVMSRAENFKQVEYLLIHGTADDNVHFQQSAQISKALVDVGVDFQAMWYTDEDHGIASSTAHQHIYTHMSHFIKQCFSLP
Procedure: as §1

POP [3] = target: T3, POP (Homo sapiens, UniProt P48147); assay: POP inhibition constants (Ki) with Tic-Pro-AFC substrate; type: biochemical; conditions: for Selectivity Ki (POP) / Ki (APCE/FAP): ratio of Ki values; for Ki: substrate Tic-Pro-AFC
T3 sequence (P48147 1-710): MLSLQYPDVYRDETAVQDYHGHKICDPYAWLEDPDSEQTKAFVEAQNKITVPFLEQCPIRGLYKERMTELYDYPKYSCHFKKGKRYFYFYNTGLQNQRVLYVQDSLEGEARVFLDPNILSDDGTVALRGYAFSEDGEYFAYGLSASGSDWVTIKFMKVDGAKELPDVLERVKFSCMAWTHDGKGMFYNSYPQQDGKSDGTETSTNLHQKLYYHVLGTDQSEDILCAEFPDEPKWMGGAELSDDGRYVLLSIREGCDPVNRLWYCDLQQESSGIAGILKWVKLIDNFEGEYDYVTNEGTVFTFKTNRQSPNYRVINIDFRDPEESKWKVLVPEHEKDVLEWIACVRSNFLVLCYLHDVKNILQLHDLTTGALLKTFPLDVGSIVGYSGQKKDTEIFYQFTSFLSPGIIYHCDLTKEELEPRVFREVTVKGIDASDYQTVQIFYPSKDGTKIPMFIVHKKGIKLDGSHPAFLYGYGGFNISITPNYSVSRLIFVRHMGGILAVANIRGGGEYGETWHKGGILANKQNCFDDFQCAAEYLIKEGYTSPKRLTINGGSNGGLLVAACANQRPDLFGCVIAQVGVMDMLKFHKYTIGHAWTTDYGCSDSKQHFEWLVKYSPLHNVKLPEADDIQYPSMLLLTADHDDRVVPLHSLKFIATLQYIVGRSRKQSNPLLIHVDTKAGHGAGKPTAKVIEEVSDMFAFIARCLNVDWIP
Procedure: as §1

APCE/FAP [4] = target: T1, APCE/FAP; assay: Cleavage kinetics of fluorescent substrates by APCE/FAP; type: biochemical
Procedure: (§2) APCE (^˜4 μg), DPPIV (^˜2 μg) or POP (^˜2 μg) was incubated in 25 mM sodium phosphate buffer, pH 7.5, containing 1.0 mM EDTA and 2% methanol in a total volume of 200 μl for 20 min at 22° C. Using Tic-Pro-AFC (10-300 μM for APCE, 5-200 μM for DPPIV, and 40-800 μM for POP), fluorescence was monitored with time at excitation/emission wavelengths of 400/508 nm, using a black-sided 96-well plate in a BIO-TEK FL600 fluorescence plate reader. For accurate assessment of kinetic parameters, saturating concentrations of substrate were used. For standard curves, dilutions of AFC (7-amino-4-trifluoromethylcoumarin) were prepared in the same assay buffer and corresponding fluorescence was measured.
(§3) Characterization of Tic-Pro-AFC as substrate: A new substrate, Tic-Pro-AFC, was used for assessing APCE/FAP, DPPIV and POP, each belonging to the same clade of prolyl-specific serine proteinases and each with activity towards unique substrates. […] Based on Ki, Km and kcat values in Tables 6 and 7, Tic-Pro-AFC was readily cleaved by each enzyme, with kcat/Km for APCE/FAP being slightly higher than POP and slightly lower than DPPIV. […] Thus, Tic-Pro-AFC was chosen as the substrate for comparing the potency and selectivity of the inhibitors towards APCE/FAP, DPPIV, or POP.

DPPIV [5] = target: T2, DPPIV; assay: Cleavage kinetics of fluorescent substrates by DPPIV; type: biochemical; conditions: for cleavage of substrate by DPPIV: result in words
Procedure: as §2, §3

Aqueous solubility = type: physicochemical; conditions: result in words
Procedure: The specific POP inhibitor, J94 (acetyl-Lys-Leu-Arg-(L)boroPro (Ki<100 nM)); and the substrate, C95 (acetyl-Arg-AEEA-Gly-Pro-AMC), were designed, synthesized and characterized by us as previously reported. […] The inhibitors (J94 and M83) were dissolved in Hanks Balanced Salt Solution (HBSS; Gibco) at 1 mM and stored at −20° C. The substrate (C95) was dissolved in HBSS at 2.5 mM and stored at 4° C. […] Tic-Pro-AFC, a prolyl-specific fluorescent substrate, was supplied by Vantia (Southampton, England).

HMVEC-d = assay: Tube formation assay of HMVEC-d on Matrigel; type: cell-based, human; conditions: 50 μM inhibitor
Procedure: For tube formation assays, Matrigel™ (BD Biosciences, San Jose, Calif.) 80 μl was added to black-sided, clear bottom 96-well plates as above and allowed to gel at 37° C. for 30 minutes. Then 15,000 HMVEC-d in EC media without serum were added and allowed to settle for 1 hour. […] The reader was maintained at 37° C. and fluorescence was measured with time for 18 hours.

[6] = system: HCT116 human colon cancer xenografts; assay: HCT116 human colon cancer xenografts in immunodeficient mice; type: in vivo; conditions: 28-day treatment period
POP [7] = target: T3, POP; assay: Cleavage kinetics of fluorescent substrates by POP; type: biochemical; conditions: for Km / kcat: substrate cleaved by POP
Procedure: as §2, §3

DPPIV [8] = target: T2, DPPIV; conditions: result in words; cited from earlier work
[9] = before cyclizing and losing inhibitory activity; cited from earlier work

CC(=O)N[C@@H](CCCNC(=N)N)C(=O)NCCOCCOCC(=O)N[C@H](C)C(=O)N1CCC[C@@H]1B(O)O (single isomer, unassigned) [Ac-Arg-peg-D-Ala-D-boroPro]
Ki (APCE/FAP [1]): 189 nM
Ki (DPPIV [2]): 20500 nM

CC(=O)N[C@@H](CCCNC(=N)N)C(=O)NCC(=O)NCC(=O)N1CCC[C@H]1B(O)O [Ac-Arg-Gly-Gly-L-boroPro]
Selectivity Ki (POP) / Ki (APCE/FAP) (POP [3]): 0.1
Ki (POP [3]): 1.6 nM

CC(=O)N[C@@H](CCCNC(=N)N)C(=O)NCCOCCOCC(=O)N[C@H](CC(=O)O)C(=O)N1CCC[C@H]1B(O)O [Ac-Arg-peg-D-Asp-L-boroPro]
Ki (APCE/FAP [1]): 1380 nM
Selectivity Ki (DPPIV) / Ki (APCE-FAP) (DPPIV [2]): 5.2
Ki (DPPIV [2]): 7130 nM
Selectivity Ki (POP) / Ki (APCE/FAP) (POP [3]): 0.02
Ki (POP [3]): 23.9 nM

CC(=O)N[C@@H](CCCNC(=N)N)C(=O)NCCOCCOCC(=O)NCC(=O)N1CCC[C@H]1B(O)O [Ac-Arg-peg-Gly-L-boroPro]
Ki (APCE/FAP [1]): 1.8 nM
Ki (DPPIV [2]): 440 nM
Selectivity Ki (POP) / Ki (APCE/FAP) (POP [3]): 1.2
Ki (POP [3]): 2.1 nM

CC(=O)N[C@@H](CCCNC(=N)N)C(=O)NCCOCCOCC(=O)N[C@@H](CO)C(=O)NCC(=O)N1CCC[C@H]1B(O)O [Ac-Arg-peg-Ser-Gly-L-boroPro]
Ki (APCE/FAP [1]): 2.7 nM
Ki (DPPIV [2]): 861 nM
Selectivity Ki (POP) / Ki (APCE/FAP) (POP [3]): 1.1
Ki (POP [3]): 2.9 nM

CC(=O)N[C@@H](CCCNC(=N)N)C(=O)NCCOCCOCC(=O)NCC(=O)N1CCC[C@H]1C(=O)Nc1ccc2c(C)cc(=O)oc2c1 [Compound C95, acetyl-Arg-AEEA-Gly-Pro-AMC] (Ac-R[AEEA]GP-{AMC})
relative rate of cleavage by FAP and POP (APCE/FAP [4]; FAP and POP at equimolar concentrations): equivalent rates; also recorded: cleaved at equal rates by FAP or POP
cleavage of substrate by DPPIV (DPPIV [5]): neither cleaved
solubility in aqueous buffers (Aqueous solubility): soluble in aqueous buffers

CC(=O)N[C@@H](CCCCN)C(=O)N[C@@H](CC(C)C)C(=O)N[C@@H](CCCNC(=N)N)C(=O)N1CCC[C@H]1B(O)O [Compound J94, acetyl-Lys-Leu-Arg-(L)boroPro]
inhibition of FAP (APCE/FAP [1]; result in words): none towards FAP; also recorded: no effect on FAP
inhibition of DPPIV (DPPIV [2]; result in words): nor was it inhibited
Ki (POP [3]): < 100 nM
formation of capillary-like tubes (HMVEC-d): inhibited formation of capillary-like tubes; also recorded: abrogated the genesis of capillary-like tubes
diminished cancer growth [6]: ~75%
solubility in aqueous buffers (Aqueous solubility): soluble in aqueous buffers

CC(=O)N[C@@H](CCCCN)C(=O)N[C@@H](CC(C)C)C(=O)N[C@@H](CCCNC(=N)N)C(=O)N1CCC[C@H]1C(=O)Nc1ccc2c(C)cc(=O)oc2c1 [Compound L96, acetyl-Lys-Leu-Arg-Pro-AMC] (Ac-KLRP-{AMC})
cleavage of substrate by APCE/FAP (APCE/FAP [4]; result in words): Neither DPPIV nor APCE/FAP cleaved
cleavage of substrate by DPPIV (DPPIV [5]): Neither DPPIV nor APCE/FAP cleaved
Km (POP [7]): 30 ± 3 µM
kcat (POP [7]): 2.4 ± 0.1 s⁻¹

Cc1cc(=O)oc2cc(NC(=O)[C@@H]3CCCN3C(=O)CN)ccc12 [GP-AMC] (H-Gly-Pro-{AMC})
cleavage of substrate by POP (POP [7]; result in words): not cleaved by POP

N[C@@H](CCC(=O)O)C(=O)N1CCC[C@H]1B(O)O [Glu-boroPro, glutamyl-proline boronic acid]
inhibition of DPPIV (DPPIV [8]): also inhibits
plasma half-life [9]: exceptionally short

O=C(Nc1ccc2c(C(F)(F)F)cc(=O)oc2c1)[C@@H]1CCCN1C(=O)[C@@H]1Cc2ccccc2CN1 [Tic-Pro-AFC] (H-[Tic]-Pro-{AFC})
Km (APCE/FAP [4]; substrate cleaved by APCE/FAP): 53 ± 5 µM
kcat (APCE/FAP [4]; substrate cleaved by APCE/FAP): 1.19 ± 0.11 s⁻¹
Km (DPPIV [5]; substrate cleaved by DPPIV): 33 ± 2 µM
kcat (DPPIV [5]; substrate cleaved by DPPIV): 1.49 ± 0.12 s⁻¹
Km (POP [7]): 161 ± 12 µM
kcat (POP [7]): 0.76 ± 0.01 s⁻¹

CC(C)[C@H](N)C(=O)N1CCC[C@H]1B(O)O [Val-boroPro]
inhibition of DPPIV (DPPIV [8]): also inhibit

Cc1cc(=O)oc2cc(NC(=O)[C@@H]3CCCN3C(=O)CNC(=O)OCc3ccccc3)ccc12 [Z-GP-AMC, benzyloxycarbonyl (Z)-GP-AMC] (Cbz-Gly-Pro-{AMC})
cleavage of substrate by DPPIV (DPPIV [5]): not cleaved by DPPIV

Ac-Arg-Gly-Gly-DL-boroPro
Ki (APCE/FAP [1]): 22.9 nM
Selectivity Ki (DPPIV) / Ki (APCE-FAP) (DPPIV [2]): 14.9
Ki (DPPIV [2]): 341 nM

Ac-Arg-peg-D-Ala-DL(25:75%)-boroPro
Ki (APCE/FAP [1]): 7.7 nM

Ac-Arg-peg-D-Ala-DL(50:50%)-boroPro
Ki (APCE/FAP [1]): 9.5 nM
Selectivity Ki (DPPIV) / Ki (APCE-FAP) (DPPIV [2]): 1176
Ki (DPPIV [2]): 11200 nM

Ac-Arg-peg-D-Ala-DL(75:25%)-boroPro
Ki (APCE/FAP [1]): 18.3 nM

Ac-Arg-peg-Gly-DL-boroPro
Ki (APCE/FAP [1]): 3.1 nM
Selectivity Ki (DPPIV) / Ki (APCE-FAP) (DPPIV [2]): 371
Ki (DPPIV [2]): 1150 nM
